Experimental data as given in patent publication US10882837B2, “Amide compounds and use thereof” (ALPHALA CO., LTD., priority 2017, dated 2021).

Columns and labels:
glucagon receptor (GCGR) = target: T1, glucagon receptor (GCGR) (Homo sapiens, UniProt P47871); test: Glucagon cAMP inhibition assay (Cisbio cAMP Dynamic 2 HTRF); assay type: cell-based; settings: GCGR overexpressed CHO-K1 cells or human primary hepatocytes (not specified); glucagon at EC50
T1 construct: expressed in transfected cells; host or cells: CHO-K1
Description: Glucagon eAMP Inhibition Assay
Downstream secondary messenger eAMP induced by glucagon was detected by Cisbio cAMP Dynamic 2 kit. Testing compounds were each prepared as a dimethyl sulfoxide (DMSO) solution at the concentration of 10 mM. To evaluate the potency of compounds in inhibiting the cAMP production, glucagon receptor (GCGR) overexpressed CHO-K1 cells or human primary hepatocytes were treated with compounds with a serial dilution. The cells were re-suspended in Hank's Balanced Salt solution (HBSS) contained 0.1% (w/v) bovine serum albumin and 800 nM 3-isobutyl-1-methylxanthine (IBMX) and seeded into low volume, 384 wells white plate. The diluted compounds were then added into the plate for 30 minutes pre-incubation where the final DMSO concentration was 1%. The cells were stimulated with glucagon at the concentration equaled to EC50 (an indicium of the concentration of a drag that gives half-maximal response) for 30 minutes at room temperature. After incubation, lysis buffer contain cAMP antibody and fluorescence acceptor were added into each well for additional 60 minutes incubation. Results were recorded by Molecular Devices SpectraMax Paradigm with the HTRF Detection Cartridges and the IC50 value of each compound in inhibiting the cAMP production was calculated with non-linear regression based on the amount of cAMP production.

GCGR = GCGR (Homo sapiens, UniProt P47871); test: I125-glucagon binding assay (competition, GCGR membrane fractions); parameters: expressed in transfected cells; host or cells: CHO-K1; inhibition: dose or concentration left out as unconfirmed; settings: for IC50: competition with I125-glucagon 0.0625 nM, membrane fractions from GCGR overexpressed CHO-K1 cells
Description: I^125-Glucagon Binding Assay
The binding affinity of each compound was evaluated by a competition assay with I^125-glucagon. GCGR membrane fractions were obtained from GCGR overexpressed CHO-K1 cells as a stock of 1 mg/ml concentration. To evaluate the IC50 of compounds binding to GCGR, GCGR membrane fractions were treated with compounds with a serial dilution. The membrane fractions were diluted to 7.5 microgram per well in 70 microliter assay buffer contained 50 mM Tris pH 7.4 and 0.5% (w/v) bovine serum albumin and added into 96 wells plate. The membrane fractions were then mixed with 10 microliter diluted compounds. After 5 minutes pre-incubation, 20 microliter I^125 labeled glucagon (Perkin Elmer) was added into each well at the final concentration of 0.0625 nM. The assay mixtures were incubated at 25° C. for 30 minutes and then transferred onto the Millipore Multiscreen GF/B Plate coated with 0.5% (w/v) Polyethyleneimine. The filter plate was washed with wash buffer contained 50 mM Tris pH 7.4 for 2 times, 300 microliter each time. The residual isotope was detected by Hidex CHAMELEON V micro-beta counter and the IC50 value of each compound binding to GCGR was calculated with non-linear regression.

GCGR, sequence (P47871 26-477, species assumed): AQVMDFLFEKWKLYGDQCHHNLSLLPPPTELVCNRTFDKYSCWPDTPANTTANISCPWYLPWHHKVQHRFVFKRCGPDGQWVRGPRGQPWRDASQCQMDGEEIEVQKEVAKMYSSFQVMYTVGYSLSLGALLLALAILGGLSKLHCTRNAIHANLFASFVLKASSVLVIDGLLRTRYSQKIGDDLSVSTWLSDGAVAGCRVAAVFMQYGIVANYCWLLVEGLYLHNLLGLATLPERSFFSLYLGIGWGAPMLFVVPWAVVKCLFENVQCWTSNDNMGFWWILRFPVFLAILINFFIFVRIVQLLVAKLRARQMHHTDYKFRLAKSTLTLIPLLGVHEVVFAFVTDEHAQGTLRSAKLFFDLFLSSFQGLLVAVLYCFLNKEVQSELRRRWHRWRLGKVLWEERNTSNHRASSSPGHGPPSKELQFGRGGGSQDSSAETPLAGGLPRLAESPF
T1 sequence (P47871 26-477, species assumed): as above

| SMILES | IC50 (glucagon receptor (GCGR)) [nM] | IC50 (GCGR) [nM] | inhibition at 30 µM (GCGR; compound at 30 μM, read-out: percentage of inhibition (number in parenthesis in IC50 binding column)) [%] | inhibition (GCGR; read-out: percentage of inhibition (number in parenthesis in IC50 binding column)) [%] |
| --- | --- | --- | --- | --- |
| CC(C)C(Nc1ccc(C(=O)NCCC(=O)O)cc1)c1ccc(-c2noc(-c3cccs3)n2)cc1 (stereo not drawn) [Compound 2-12, 3-(4-((2-methyl-1-(4-(5-(thiophen-2-yl)-1,2,4-oxadiazol-3-yl)phenyl)propyl)amino)benzamido)propanoic acid] | 504 | 354 | – | – |
| CCCC[C@@H](Nc1ccc(C(=O)NCCC(=O)OCC)cc1)c1ccc(-c2nnc(-c3ccccn3)o2)cc1 [Compound 1-44, ethyl (R)-3-(4-((1-(4-(5-(pyridin-2-yl)-1,1,3,4-oxadiazol-2-yl)phenyl)pentyl)amino)benzamido propanoate] | 830 | > 30000 | – | – |
| O=C(O)CCNC(=O)c1ccc(NC(c2ccc(-c3noc(-c4ccccc4)n3)cc2)C2CCCC2)cc1 (stereo not drawn) [Compound 2-15, 3-(4-((cyclopentyl(4-(5-phenyl-1,2,4-oxadiazol-3-yl)phenyl)methyl)amino)benzamido)propanoic acid] | 450 | 106 | – | – |
| CC(C)[C@H](Nc1ccc(C(=O)NCCC(=O)O)cc1)c1ccc(-c2nnc(C(F)(F)F)o2)cc1 (racemic) [Compound 1-57, (RS)-3-(4-((2-methyl-1-(4-(5-(trifluoromethyl)-1,3,4-oxadiazol-2-yl)phenyl)propyl)amino)benzamido)propanoic acid] | > 30000 | 2500 | – | – |
| CC(C)C(Nc1ccc(C(=O)NCCC(=O)O)cc1)c1ccc(-c2nnc(-c3ccccc3)o2)cc1 (stereo not drawn) [Compound 1-1, 3-(4-((2-Methyl-1-(4-(5-phenyl-1,3,4-oxadiazol-2-yl)phenyl)propyl)amino)benzamido)propanoic acid] | 4690 | 27 | – | – |
| CCOC(=O)CCNC(=O)c1ccc(NC(c2ccc(-c3nnc(C(F)(F)F)o3)cc2)C(C)CC)cc1 (stereo not drawn) [Compound 1-31, ethyl 3-(4-((2-methyl-1-(4-(5-(trifluoromethyl)-1,3,4-oxadiazol-2-yl)phenyl)butyl)amino)benzamido)propanoate] | 88 | > 30000 | – | – |
| CC(C)C[C@H](Nc1ccc(C(=O)NCCC(=O)O)cc1)c1ccc(-c2nc(-c3ccccc3)no2)cc1 [Compound 5-2, (S)-3-(4-((3-methyl-1-(4-(3-phenyl-1,2,4-oxadiazol-5-yl)phenyl)butyl)amino)benzamido)propanoic acid] | 211 | 20 | – | – |
| CCC(C)C(Nc1ccc(C(=O)NCCC(=O)O)cc1)c1ccc(-c2nnc(C(C)(C)C)o2)cc1 (stereo not drawn) [Compound 1-22, 3-(4-((1-(4-(5-(tert-butyl)-1,3,4-oxadiazol-2-yl)phenyl)-2-methylbutyl)amino)benzamido)propanoic acid] | 10300 | 246 | – | – |
| CCCCC(Nc1ccc(C(=O)NCCC(=O)OC)cc1)c1ccc(-c2noc(-c3ccccc3)n2)cc1 (stereo not drawn) [Compound 2-32, methyl 3-(4-((1-(4-(5-phenyl-1,2,4-oxadiazol-3-yl)phenyl)pentyl)amino)benzamido)propanoate] | 147 | 616 | – | – |
| CCCC[C@@H](Nc1ccc(C(=O)NCCC(=O)OCC)cc1)c1ccc(-c2nc3ccccc3o2)cc1 [Compound 4-9, ethyl (R)-3-(4-((1-(4-(benzo[d]oxazol-2-yl)phenyl)pentyl)amino)benzamido)propanoate] | 186 | 602 | – | – |
| CC(C)C(Oc1ccc(-c2nc3ccccc3s2)cc1)c1ccc(C(=O)NCCC(=O)O)cc1 (stereo not drawn) [Compound 7-4, 3-(4-(1-(4-(Benzo[d]thiazol-2-yl)phenoxy)-2-methylpropyl)benzamido)propanoic acid] | 209 | 208 | – | – |
| CCOC(=O)CCNC(=O)c1ccc(C(Nc2ccc(-c3nnc(-c4ccccc4)o3)cc2)C(C)C)cc1 (stereo not drawn) [Compound 3-4] | 1230 | 2790 | – | – |
| COC(=O)CCNC(=O)c1ccc(N[C@H](c2ccc(-c3noc(-c4ccccc4)n3)cc2)C(C)C)cc1 [Compound 2-49, methyl (S)-3-(4-((2-methyl-1-(4-(5-phenyl-1,2,4-oxadiazol-3-yl)phenyl)propyl)amino)benzamido)propanoate] | 55.8 | 285 | – | – |
| CCC(C)[C@@H](Nc1ccc(C(=O)NCCC(=O)O)cc1)c1ccc(-c2nnc(-c3ccccc3)o2)cc1 (stereo partly drawn) [Compound 1-50, 3-(4-(((1R)-2-methyl-1-(4-(5-phenyl-2,3,4-oxadiazol-2-yl)phenyl)butyl)amino)benzamido)propanoic acid] | 2730 | 82 | – | – |
| CCOC(=O)CCNC(=O)c1ccc(NC(c2ccc(-c3nnc(-c4ccccc4)o3)cc2)C(C)CC)cc1 (stereo not drawn) [Compound 1-10, Ethyl 3-(4-((2-methyl-1-(4-(5-phenyl-1,3,4-oxadiazol-2-yl)phenyl)butyl)amino)benzamido)propanoate] | 25 | 1870 | 34 | – |
| CCOC(=O)CCNC(=O)c1ccc(C(Nc2ccc(-c3nnc(-c4ccc(F)cc4)o3)cc2)C(C)C)cc1 (stereo not drawn) [Compound 3-9, ethyl 3-(4-(1-((4-(5-(4-fluorophenyl)-1,3,4-oxadiazol-2-yl)phenyl)amino)-2-methylpropyl)benzamido)propanoate] | 442 | > 30000 | – | – |
| CCOC(=O)CCNC(=O)c1ccc(NC(c2ccc(-c3nnc(-c4ccc(OC)cc4)o3)cc2)C(C)C)cc1 (stereo not drawn) [Compound 1-25, ethyl 3-(4-((l-(4-(5-(4-methoxyphenyl)-1,3,4-oxadiazol-2-yl)phenyl)-2-methylpropyl)amino)benzamido)propanoate] | 284 | > 30000 | – | – |
| CCCCC(Nc1ccc(C(=O)NCCC(=O)OCC)cc1)c1ccc(-c2noc(C(C)(C)C)n2)cc1 (stereo not drawn) [Compound 2-3] | 225 | > 30000 | – | – |
| CCOC(=O)CCNC(=O)c1ccc(N[C@H](c2ccc(-c3noc(C(F)(F)F)n3)cc2)C(C)CC)cc1 (stereo partly drawn) [Compound 2-29, ethyl 3-(4-(((1S)-2-methyl-1-(4-(5-(trifluoromethyl)-1,2,4-oxadiazol-3-yl)phenyl)butyl)amino)benzamido)propanoate] | 172 | 1820 | – | 18 |
| CCCCC(Nc1ccc(C(=O)NCCC(=O)O)cc1)c1ccc(-c2nnc(-c3ccccn3)o2)cc1 (stereo not drawn) [Compound 1-16, 3-(4-((1-(4-(5-(Pyridin-2-yl)-1,3,4-oxadiazol-2-yl)phenyl)pentyl)amino)benzamido)propanoic acid] | 15700 | 203 | – | – |
| CC(C)CC(Nc1ccc(C(=O)NCCC(=O)O)cc1)c1ccc(-c2nnc(-c3ccc(F)cc3)o2)cc1 (stereo not drawn) [Compound 1-28, 3-(4-((1-(4-(5-(4-fluorophenyl)-1,3,4-oxadiazol-2-yl)phenyl)-3-methylbutyl)amino)benzamido)propanoic acid] | 4760 | 563 | – | – |
| CC(C)[C@H](Nc1ccc(C(=O)NCCS(=O)(=O)O)cc1)c1ccc(-c2nnc(-c3ccccc3)o2)cc1 [Compound 1-64, (S)-2-(4-((2-methyl-1-(4-(5-phenyl-1,3,4-oxadiazol-2-yl)phenyl)propyl)amino)benzamido)ethane-1-sulfonic acid] | > 30000 | 101 | – | – |
| CCOC(=O)CCNC(=O)c1ccc(N[C@@H](c2ccc(-c3nc4ccccc4o3)cc2)C(C)CC)cc1 (stereo partly drawn) [Compound 4-21, ethyl 3-(4-(((1R)-1-(4-(benzo[d]oxazol-2-yl)phenyl)-2-methylbutyl)amino)benzamido)propanoate] | 242 | 923 | – | – |
| CCCC[C@H](Nc1ccc(C(=O)NCCC(=O)OCC)cc1)c1ccc(-c2nnc(C(F)(F)F)o2)cc1 [Compound 1-51, ethyl (S)-3-(4-((1-(4-(5-(trifluoromethyl)-1,3,4-oxadiazol-2-yl)phenyl)pentyl)amino)benzamido)propanoate] | 33.9 | 6170 | – | – |
| CCOC(=O)CCNC(=O)c1ccc(NC(c2ccc(-c3nnc(C(C)(C)C)o3)cc2)C(C)CC)cc1 (stereo not drawn) [Compound 1-21, Ethyl 3-(4-((1-(4-(5-(tert-butyl)-1,3,4-oxadiazol-2-yl)phenyl)-2-methylbutyl)amino)benzamido)propanoate] | 126 | 3310 | – | – |
| CC(C)C(Nc1ccc(-c2nnc(-c3ccc(F)cc3)o2)cc1)c1ccc(C(=O)NCCC(=O)O)cc1 (stereo not drawn) [Compound 3-10, 3-(4-(1-((4-(5-(4-fluorophenyl)-1,3,4-oxadiazol-2-yl)phenyl)amino)-2-methylpropyl)benzamido)propanoic acid] | 4500 | 143 | – | – |
